A short description of data set [1]: Apparent solubility study in phosphate buffer pH 6.8. It counts as physicochemical. As to the method: (§1) The injection volume differed depending on the assay. […] The method’s duration was 12 min.
(§2) Phosphate buffer at pH 6.8 was prepared according to the following description: in a 1000 mL volumetric flask, we placed 250 mL of 0.2 N potassium dihydrogen phosphate solution, then added 112 mL of 0.2 N sodium hydroxide solution, and filled the mixture up to 1000 mL with distilled water. High-quality pure water was prepared using a Direct-Q 3 UV purification system (Millipore, Molsheim, France, model Exil SA 67120).
An excess amount of raw compounds and systems (corresponding to 1.5 mg of each substance) was placed in a 10 mL glass tube; then, 2.0 mL of phosphate buffer (pH 6.8) was added and left at room temperature for 3 h.

A short description of the next data set: in vitro. The note with it: PAMPA, pH 6.8. On the procedure:
Concentrations of curcumin and piperine during solubility, dissolution rate, and permeability studies were measured by high-performance liquid chromatography with the DAD detector (HPLC-DAD). In this study, a Shimadzu Nexera system (Shimadzu Corp., Kyoto, Japan) was used, equipped with an SCL-40 system controller, a DGU-403 degassing unit, a LC-40B XR solvent delivery module, a SIL-40C autosampler, a CTO-40C column oven, and a SPD-M40 photodiode array detector. For the stationary phase, a Dr. Maisch ReproSil-Pur Basic-C18 100 Å column with 5 µm particle size and 250 × 4.60 mm (Dr. Maisch, Ammerbuch-Entringen, Germany) was used. The mobile phase was acetonitrile:0.1% acetic acid (85:15 v/v). The mobile phase was vacuum-filtered through a 0.45 µm nylon filter (Phenomenex, Torrance, CA, USA). The experimental conditions were as follows: 0.5 mL/min flow rate, wavelengths of 420 nm for curcumin and 340 nm for piperine, and a column temperature of 30 °C. The injection volume differed depending on the assay. […] The method’s duration was 12 min. […]
In vitro gastrointestinal (GIT) and blood–brain barrier (BBB) permeability were studied using the PAMPA (Parallel Artificial Membrane Permeability Assay) models. […] The Papp factor was calculated according to the previously reported method. […] The results were expressed as a concentration in the acceptor solution.

Data set [2] is described as follows: Dissolution study, paddle apparatus, phosphate buffer pH 6.8. It counts as physicochemical. The settings on record: phosphate buffer pH 6.8, 37 °C, 50 rpm; after one hour (plateau). On the procedure: as §1, §2
The dissolution study was performed on the paddle apparatus (Agilent 708-DS dissolution apparatus, Santa Clara, CA, USA). The amount of the compound and systems corresponding to 7.0 mg of each plant-origin active ingredient was added to the gelatin capsule, placed in a spring used as a sinker, and then added to the dissolution medium. The vessels were filled with 500 mL of phosphate buffer, pH 6.8; the temperature was maintained at 37 °C, and the paddles were set at a stirring speed of 50 rotations per minute. The 2.0 mL samples were withdrawn at predetermined time points (5 min, 15 min, 30 min, 1 h, 2 h, 3 h, 4 h, 5 h, and 6 h) with the replacement of equal volumes of temperature-equilibrated media.

Data set [3] can be described thus: PAMPA BBB permeability model. The class given is in vitro ADME. The note with it: pH 7.4. As to the method:
as §1
The sandwich consists of two 96-well microfilter plates.
A general note: In PAMPA a lipid-coated filter parts donor from acceptor wells.

As usually defined, the solubility is how much of the substance goes into solution per volume. What is called Papp is the rate of passage across a membrane or cell layer, normalised by area and donor concentration. A high value points to ready permeation.

Values after ≈ are worked out from the molar mass of the structure shown.

As to `COc1cc(/C=C/C(=O)CC(=O)/C=C/c2ccc(O)c(OC)c2)ccc1O` [curcumin], in data set [1], the solubility at 3 h turned out to be 0.1 µg/mL (≈ 0.271 µM). The Papp at 3 h in the data set “in vitro” amounted to 1.63 ×10⁻⁶ cm/s; in data set [3], 2.63 ×10⁻⁶ cm/s. Besides, the “curcumin dissolved, % of the dose” value in data set [2] is on record as 2.54 ± 0.15%.

As for `O=C(/C=C/C=C/c1ccc2c(c1)OCO2)N1CCCCC1` [piperine], the solubility at 3 h in data set [1] is 6 ± 0.1 µg/mL (≈ 21 µM). Also, the Papp at 3 h in “in vitro” is 8.18 ×10⁻⁶ cm/s; in data set [3], 57.7 ×10⁻⁶ cm/s. Also, in data set [2], the “piperine dissolved, % of the dose” value is recorded as 22.63 ± 0.67%.

The record behind these values is paper PMC10180276, “Hot-Melt Extrusion as an Effective Technique for Obtaining an Amorphous System of Curcumin and Piperine with Improved Properties Essential for Their Better Biological Activities” (Molecules, 2023).
